From patent US20250345492A1, “AN ANTIBACTERIAL POLYPEPTIDE COMPOUND, A MEDICAL DEVICE, HYDROGEL AND USE THEREOF” (priority 2020, published 2025)
Ends that are not written are not given here.

Tests used:
Acute toxicity in mice = experiment: Acute toxicity in mice; design: species or system Kunming mice; conditions: mouse, in vivo, ip, intraperitoneal injection, Karber method
Procedure: Acute toxicity of the compounds was determined by measuring the acute toxicity in mice with the compounds.
Taking compounds 2, 8, 9, 13 and 15 of the present invention as examples, […]. The mice used in this test were Kunming mice, which were placed in constant-temperature environment (22±1° C.) and could freely obtain water and food. Simply, 132 healthy Kunming mice were randomly divided into 11 groups, with 12 mice in each group (half male and half female), wherein, 5 groups were intraperitoneally injected with 0.2 ml of the compounds of different doses (100-1000 mg/kg), and the control group was intraperitoneally injected with normal saline. In this experiment, melittin was used as a reference control, and the other 5 groups were intraperitoneally injected with melittin of different doses (10-32 mg/kg). The state of mice was observed and recorded after 2 hours of administration, and then observed twice a day for 14 days, and the survival rates of the mice were recorded.

[1] = tested on: human embryonic renal epithelial cell HEK293; experiment: Cytotoxicity, MTT colorimetry; type: cell-based
Procedure: (§1) For cytotoxicity determination, the MTT colorimetry was used to evaluate the effects of the compounds on the proliferation of human cervical cancer cell Hela, human embryonic renal epithelial cell HEK293 and mouse mononuclear macrophage RAW264.7.
(§2) Taking compounds 2, 8, 9, 13 and 15 of the present invention as examples, the cytotoxicity of the antibacterial polypeptide compounds was analyzed. Three cell lines were employed for the present invention, namely human cervical cancer cell Hela, human embryonic renal epithelial cell HEK293 and mouse mononuclear macrophage RAW264.7. Hela cells were cultured in RPMI 1640 medium with 10% newborn calf serum, HEK293 cells and RAW264.7 cells were cultured in DMEM medium with 10% fetal bovine serum. Simply, cells (1×10^4 cells/well) were inoculated to a 96-well plate and incubated in an incubator set to 5% CO2 at 37° C. After 24 hours, compounds of different concentrations were added and incubated in the 5% CO2 incubator. After 24 hours, 20 μL of MTT solution with a concentration of 5 mg/mL was added to each well and incubated for 4 hours. After that, the medium was removed with a pipet, and 150 μL of DMSO added to dissolve the purple-blue formazan crystals. The solution was shaken in an oscillator for 5 mins before detecting the absorbance value at 570 nm using the ELISA reader, and then the survival rate was calculated with the formula: (OD dosing group/OD control group)×100% (n=3).

[2] = tested on: human cervical cancer cell Hela; experiment: Cytotoxicity, MTT colorimetry; type: cell-based
Procedure: as §1, §2

[3] = tested on: mouse mononuclear macrophage RAW264.7; experiment: Cytotoxicity, MTT colorimetry; type: cell-based
Procedure: as §1, §2

[4] = tested on: E-2b, clinical isolated drug-resistant strain ESBL; conditions: strain E-2b (ESBL)
Excerpt: (§3) With respect to the determination of antibacterial activity and antifungal activity of the antibacterial polypeptide compounds, the bacterial strains employed included: E. coli (ATCC 25922), E. coli (ATCC 43837), Pseudomonas aeruginosa (ATCC 27853), Klebsiella pneumoniae (ATCC 700603), Cronobacter sakazakii (ATCC 29544), Staphylococcus aureus (ATCC 29213), Bacillus subtilis (ATCC 23857) and Staphylococcus epidermidis (ATCC 12228); and the fungal strains employed included Candida albicans (ATCC 14053), Candida glabrata (ATCC 2001), Candida parapsilosis (ATCC 22019), Candida tropicalis (ATCC 750) and Candida krusei (ATCC 6258), all of which were standard strains from American Type Culture Collection. In addition, drug-resistant strains S-1a, S-2a, S-3a, S-4a, E-1b, E-2b, E-3b, E-4b, E-5b, P-1c, P-2c, P-3c, P-4c, P-5c, and clinically isolated fungal strains Candida glabrata 2-1 and Candida albicans 14-1, 14-2 and 14-3 were employed, all which were clinically isolated.
(§4) Simply, a proper amount of the cryopreserved bacterium or fungus was added to fresh MH/SD medium, and cultured on a shaker overnight at 180 rpm at 37° C. The obtained cells were seeded again and cultured on a shaker for 4-5 hours to obtain cells in logarithmic phase. The resulting cells were added to a 96-well plate (1×10^5 CFU/ml, 100 μL/well), and then 100 μL of polypeptide with different concentrations (1-256 μM) twice the final concentrations was added to corresponding well according to the 2-fold serial dilution method. The fresh medium was used as a negative control, which was prepared in triplicate for each concentration. After dosing, the 96-well plate was placed in an incubator at constant 37° C. and humidity for 12 hours to observe the results. According to naked eye observations, the concentration of the compound in the first transparent well following the turbid wells was recorded as the MIC of the compound, namely, the MIC value of the compound to the bacterium or fungus.

[5] = tested on: P-1c, clinical isolated drug-resistant strain PA; conditions: strain P-1c (PA)
Excerpt: as §3, §4

[6] = tested on: S-2a, clinical isolated drug-resistant strain MRSA; conditions: strain S-2a (MRSA)
Excerpt: as §3, §4

[7] = tested on: E-1b, clinical isolated drug-resistant strain ESBL; conditions: strain E-1b (ESBL)
Excerpt: as §3, §4

[8] = tested on: E-5b, clinical isolated drug-resistant strain ESBL; conditions: strain E-5b (ESBL)
Excerpt: as §3, §4

[9] = tested on: Staphylococcus epidermidis (ATCC 12228); conditions: ATCC 12228
Excerpt: as §3, §4

[10] = tested on: P-3c, clinical isolated drug-resistant strain PA; conditions: strain P-3c (PA)
Excerpt: as §3, §4

[11] = tested on: P-5c, clinical isolated drug-resistant strain PA; conditions: strain P-5c (PA)
Excerpt: as §3, §4

C. tropicalis ATCC750 = conditions: ATCC750
Excerpt: as §3, §4

[12] = tested on: S-3a, clinical isolated drug-resistant strain MRSA; conditions: strain S-3a (MRSA)
Excerpt: as §3, §4

[13] = tested on: S-1a, clinical isolated drug-resistant strain MRSA; conditions: strain S-1a (MRSA)
Excerpt: as §3, §4

C. glabrata ATCC22019 = conditions: ATCC22019
Excerpt: as §3, §4

[14] = tested on: Staphylococcus aureus (ATCC 29213); conditions: ATCC 29213
Excerpt: as §3, §4

C. krusei ATCC6258 = conditions: ATCC6258
Excerpt: as §3, §4

[15] = tested on: Pseudomonas aeruginosa (ATCC 27853); conditions: standard strain
Excerpt: as §3, §4

[16] = tested on: P-2c, clinical isolated drug-resistant strain PA; conditions: strain P-2c (PA)
Excerpt: as §3, §4

E. coli (ATCC 25922) [17] = conditions: ATCC 25922
Excerpt: as §3, §4

[18] = tested on: Bacillus subtilis (ATCC 23857); conditions: ATCC 23857
Excerpt: as §3, §4

C. albicans ATCC14053 = conditions: ATCC14053
Excerpt: as §3, §4

[19] = tested on: S-4a, clinical isolated drug-resistant strain MRSA; conditions: strain S-4a (MRSA)
Excerpt: as §3, §4

C. parapsilosis ATCC2001 = conditions: ATCC2001
Excerpt: as §3, §4

[20] = tested on: P-4c, clinical isolated drug-resistant strain PA; conditions: strain P-4c (PA)
Excerpt: as §3, §4

[21] = tested on: E-4b, clinical isolated drug-resistant strain ESBL; conditions: strain E-4b (ESBL)
Excerpt: as §3, §4

[22] = tested on: Cronobacter sakazakii (ATCC 29544); conditions: ATCC 29544
Excerpt: as §3, §4

[23] = tested on: E-3b, clinical isolated drug-resistant strain ESBL; conditions: strain E-3b (ESBL)
Excerpt: as §3, §4

E. coli (ATCC 25922) [24] = experiment: Mouse septic peritonitis model, survival; type: in vivo, Kunming mice; conditions: 20 mg/kg intraperitoneally one hour after E. coli inoculation, 7 days of observation
Procedure: The determination of the in vivo antibacterial activity of the antibacterial polypeptide compounds is to reflect the antibacterial activity in vivo by detecting the survival rate of mice infected with bacteria or fungi.
Taking compounds 2, 8, 9, 13 and 15 of the present invention as examples, the in vivo antibacterial effects of the antibacterial polypeptide compounds were analyzed. The mice used in this test were Kunming mice, which were placed in constant-temperature environment (22±1° C.). Simply, 36 Kunming mice (18-22 g of body weight) were randomly divided into 6 groups and intraperitoneally injected with 0.2 ml of 3×10^8 CFU/mL E. coli (ATCC 25922) on Day 1 to establish mouse septic peritonitis model. The mice were administered intraperitoneally one hour after inoculation with the bacteria, and then the compounds 2, 8, 9, 13 and 15 were injected intraperitoneally at a dose of 20 mg/kg of body weight. Polymyxin B (20 mg/kg) was selected as a positive reference control, and a negative control group received intraperitoneal injection of sterile saline. After 7 days of observation, the survival rates of mice in administration groups and control groups were calculated to create survival curves.

Procedure for mouse red blood cells: The hemolytic activity was determined by measuring a hemolytic concentration for mouse red blood cells with the antibacterial polypeptide compounds.
The mouse red blood cells was diluted to a concentration of 8%, the obtained red blood cell suspension was added to a 96-well plate (100 μL per well), and then 100 μL of one compound was added to a corresponding well. After incubation for 1 hour, the supernatant of each well was added to another 96-well plate, and then the absorbance value of the sample supernatant was measured at 490 nm using a ELISA reader. With regard to the present invention, PBS and 2% Triton-X 100 were used as a negative control and a positive control, separately.

**Q.** With PWRLRLRL-NH2 [Compound 15] as the substance, how does the LD50 (Acute toxicity in mice) read?
**A.** Its LD50 is greater than 1000 mg/kg.

**Q.** What about the “effect on proliferation (inhibitory activity)” value (shortened to “effect … (inhibitory activity)”) [1] of the same substance?
**A.** The value was “no inhibitory activity”.

**Q.** And the “effect … (inhibitory activity)” value [2]?
**A.** The value was “no inhibitory activity”.

**Q.** What about the “effect … (inhibitory activity)” value [3] of the same substance?
**A.** The value was “no inhibitory activity”.

**Q.** What about the MIC [4] of the same substance?
**A.** Its MIC is 4 µM.

**Q.** What about the MIC [5] of the same substance?
**A.** Its MIC is 8 µM.

**Q.** What about the MIC [6] of the same substance?
**A.** Its MIC is 8 µM.

**Q.** And the MIC [7]?
**A.** The MIC was 4 µM.

**Q.** And the MIC [8]?
**A.** Its MIC is 4 µM.

**Q.** What about the “MIC S. epidermidis ATCC12228” value [9] of the same substance?
**A.** The value was 8 µM.

**Q.** And the MIC [10]?
**A.** Its MIC is 8 µM.

**Q.** And the MIC [11]?
**A.** Its MIC is 8 µM.

**Q.** And the “MIC C. tropicalis ATCC750” value (C. tropicalis ATCC750)?
**A.** Its value is 4 µM.

**Q.** And the MIC [12]?
**A.** The MIC was 8 µM.

**Q.** What about the MIC [13] of the same substance?
**A.** Its MIC is 8 µM.

**Q.** And the “MIC C. glabrata ATCC22019” value (C. glabrata ATCC22019)?
**A.** The value was 4 µM.

**Q.** What about the “MIC S. aureus ATCC29213” value [14] of the same substance?
**A.** The value was 8 µM.

**Q.** What about the “MIC C. krusei ATCC6258” value (C. krusei ATCC6258) of the same substance?
**A.** Its value is 16 µM.

**Q.** And the “MIC P. aerugmosa ATCC27853” value [15]?
**A.** Its value is 8 µM.

**Q.** And the MIC [16]?
**A.** The MIC was 8 µM.

**Q.** What about the “MIC C. coli ATCC25922” value (E. coli (ATCC 25922) [17]) of the same substance?
**A.** Its value is 4 µM.

**Q.** And the “MIC B. subtilis ATCC23857” value [18]?
**A.** Its value is 4 µM.

**Q.** And the “MIC C. albicans ATCC14053” value (C. albicans ATCC14053)?
**A.** Its value is 4 µM.

**Q.** What about the MIC [19] of the same substance?
**A.** Its MIC is 8 µM.

**Q.** And the “MIC C. parapsilosis ATCC2001” value (C. parapsilosis ATCC2001)?
**A.** The value was 4 µM.

**Q.** And the MIC [20]?
**A.** Its MIC is 8 µM.

**Q.** What about the MIC [21] of the same substance?
**A.** The MIC was 4 µM.

**Q.** And the “MIC C. sakazakii ATCC29544” value [22]?
**A.** The value was 8 µM.

**Q.** What about the MIC [23] of the same substance?
**A.** The MIC was 4 µM.

**Q.** Which “survival rate of mice” value (E. coli (ATCC 25922) [24]) does the source give for Polymyxin B here?
**A.** The value was 100%.

**Q.** For Triton X-100, which hemolysis rate (mouse red blood cells) is on record?
**A.** Its hemolysis rate is 100%.
